The record followed here is patent US20260209215A1, “GLYCINE DERIVATIVES WITH P2X4 RECEPTOR-BLOCKING ACTIVITY AS DIAGNOSTICS AND FOR THE TREATMENT OF PAIN, INFLAMMATION, CANCER, AND OTHER P2X4 RECEPTOR-RELATED DISEASES” (RHEINISCHE-FRIEDRICH-WILHELMS-UNIVERSITÄT BONN, priority 2022, published 2026).

For this test, the target named is T1, P2X4 receptor (Homo sapiens, UniProt Q99571).
T1 construct: expressed in transfected cells; host or cells: 1321N1 astrocytoma cells, retroviral vector pQCXIN, G418 selection, monoclones
T1 sequence (Q99571 1-388): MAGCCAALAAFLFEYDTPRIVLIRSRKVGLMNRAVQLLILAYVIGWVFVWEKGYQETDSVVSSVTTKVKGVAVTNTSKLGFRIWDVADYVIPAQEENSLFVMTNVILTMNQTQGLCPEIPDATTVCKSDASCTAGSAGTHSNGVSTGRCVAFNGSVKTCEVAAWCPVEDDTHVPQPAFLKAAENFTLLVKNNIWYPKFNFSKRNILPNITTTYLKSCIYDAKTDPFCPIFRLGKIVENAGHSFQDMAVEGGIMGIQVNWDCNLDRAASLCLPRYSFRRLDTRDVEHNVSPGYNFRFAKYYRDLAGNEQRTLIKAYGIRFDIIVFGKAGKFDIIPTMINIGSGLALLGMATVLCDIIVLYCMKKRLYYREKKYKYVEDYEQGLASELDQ
Description: Measurement of Ca2+ influx in transfected 1321N1 astrocytoma cells (P2X4 inhibitory potency). As to conditions: agonist-mediated Ca2+ influx, FLUO-4, 1321N1 astrocytoma cells; antagonists added 30 min before agonist. It is filed as cell-based. From the text:
The rat, mouse, and human P2X4 DNA, respectively, were cloned into the retroviral vector pQCXIN. 1321N1 Astrocytoma cells were transfected with the DNA using a retroviral system as described previously. In brief, GP+envAM12 packaging cells were first transiently co-transfected with a retroviral vector to generate the retrovirus and with a vesicular stomatitis virus G protein (VSV-G) to pseudotype the virus and to increase their infection efficiency. The viruses containing the rat, mouse or human P2X4 receptor sequence were then used to create a stable astrocytoma cell line. P2X4 receptor-expressing cells were selected with G418 ([…]).
The selection of monoclones for rat and human P2X4 receptors was performed using the limited dilution method by plating the cells at very low cell densities (1 cell clone per well in 96-well plates). Cells were counted, and then several dilutions were made to obtain a concentration of […]. We subsequently added 100 µL of the diluted cell suspension into each well expecting to obtain on average 1 cell per well. After a few days the wells that contained single clones were labeled and transferred into 24 well plates. More than 20 clones were selected for each cell line and characterized in calcium influx assay.
Measurement of Ca^2+ influx in transfected 1321N1 astrocytoma cells
P2X receptor function was determined on the basis of agonist-mediated increases in cytosolic Ca^2+ concentration. The fluorescent Ca^2+chelating dye FLUO-4 was used as an indicator of the relative levels of intracellular Ca^2+ in a 96-well format using a fluorescence imaging plate reader (Novostar, BMG, Germany). Cells were grown to confluence in 96-well black-walled tissue culture plates and loaded with FLUO-4 AM ([…]) in Hank's balanced salt solution (HBSS, containing 10 mM HEPES, pH 7.3, and 1% Pluronic® F127) for 1 h at 23° C. After incubation, the loaded cells were washed with the same buffer to remove extracellular FLUO-4 AM. Compound solutions were prepared in HBSS (containing 20 mM HEPES, pH 7.3) or DMSO depending on their solubility. […] Fluorescence intensity was measured at 520 nm for 30 s at 0.4 s intervals. Buffer or test compounds were injected sequentially into separate wells using the automatic pipetting device. At least three independent experiments were performed in triplicate or duplicate. Antagonists were added 30 min before the addition of agonists. The assays were performed in a final volume of 200 μL. Compounds were tested at 7-8 different concentrations spanning three orders of magnitude of concentrations. Statistical significances were calculated using the unpaired two-tailed t-test.
For the compound `Cc1ccc(-c2nc(Br)ns2)cc1NCC(=O)N1CCc2c(OCC(C)(C)O)cccc21` [Example 14], the IC50 is 0.1 to 19 nM.

Turning to `Cc1nsc(-c2ccc(C)c(NCC(=O)N3CCc4c(OCCC(C)(C)O)cccc43)c2)n1` [Example 30, 1-(4-(3-hydroxy-3-methylbutoxy)indolin-1-yl)-2-((2-methyl-5-(3-methyl-1,2,4-thiadiazol-5-yl)phenyl)amino)ethan-1-one], the IC50 is 0.1 to 19 nM.

`Cc1nsc(-c2ccc(C)c(NCC(=O)N3CCc4c(C(C)O)cccc43)c2)n1` (centres unmarked) [Example 29, 1-(4-(1-hydroxyethyl)indolin-1-yl)-2-((2-methyl-5-(3-methyl-1,2,4-thiadiazol-5-yl)phenyl)amino)ethan-1-one]: the 50% inhibitory concentration (IC50) lay within 20 to 39 nM.

As for `CCc1noc(-c2cc(NCC(=O)c3c[nH]c4cc(OC)ccc34)c(OC)cc2Br)n1` [Example 109, 2-((4-bromo-5-(3-ethyl-1,2,4-oxadiazol-5-yl)-2-methoxy-phenyl)amino)-1-(6-methoxy-1H-indol-3-yl)ethan-1-one], the IC50 fell in the range of 40 to 69 nM.

In turn, `Cc1ccc(-c2nc(C3CC3)no2)cc1NCC(=O)N1CCc2c(OCC(C)(C)O)cccc21` [Example 50, 2-((5-(3-cyclopropyl-1,2,4-oxadiazol-5-yl)-2-methylphenyl)amino)-1-(4-(2-hydroxy-2-methylpropoxy)-indolin-1-yl)ethan-1-on] had an IC50 of 40 to 69 nM.

For `Cc1ccc(-c2ccc(C)c(NCC(=O)N3CCc4c(-c5c[nH]cn5)cccc43)c2)o1` [Example 73, 1-(4-(1H-imidazol-4-yl)indolin-1-yl)-2-((2-methyl-5-(5-methylfuran-2-yl)phenyl)amino)ethan-1-one], the IC50 fell in the range of 40 to 69 nM.

Regarding `Cc1noc(-c2ccc(C)c(NCC(=O)N3CCc4c(N5CCC(O)C5)cccc43)c2)n1` (centres unmarked) [Example 25, 1-(4-(3-hydroxy-pyrrolidin-1-yl)indolin-1-yl)-2-((2-methyl-5-(3-methyl-1,2,4-oxadiazol-5-yl)phenyl)amino)ethan-1-one], the 50% inhibitory concentration (IC50) is 0.1 to 19 nM.

In the case of `COc1cc2[nH]cc(C(=O)CNc3cc(-c4nc(C)ns4)ccc3OC)c2cc1F` [Example 94, 1-(5-fluoro-6-methoxy-1H-indol-3-yl)-2-((2-methoxy-5-(3-methyl-1,2,4-thiadiazol-5-yl)phenyl)amino)ethan-1-one], the half-inhibitory concentration (IC50) was in the range of 0.1 to 19 nM.

In the case of `Cc1ccc(-c2ccc(Cl)cn2)cc1NCC(=O)N1CCc2c(OCC(C)(C)O)cccc21` [Example 115, 2-((5-(5-chloropyridin-2-yl)-2-methylphenyl)amino)-1-(4-(2-hydroxy-2-methyl-propoxy)-indolin-1-yl)ethan-1-one], the IC50 was 40 to 69 nM.

Consider `Cc1nsc(-c2ccc(C)c(NCC(=O)N3CCc4c3cccc4C3(O)COC3)c2)n1` [Example 55, 1-(4-(3-hydroxyoxetan-3-yl)indolin-1-yl)-2-((2-methyl-5-(3-methyl-1,2,4-thiadiazol-5-yl)phenyl)amino)ethan-1-one], for which the half-inhibitory concentration (IC50) lay within 0.1 to 19 nM.

For the compound `Cc1nsc(-c2ccc(C)c(NCC(=O)c3c[nH]c4c(C(C)O)cccc34)c2)n1` (centres unmarked) [Example 112, 1-(7-(1-hydroxyethyl)-1H-indol-3-yl)-2-((2-methyl-5-(3-methyl-1,2,4-thiadiazol-5-yl)phenyl)amino)ethan-1-one], the half-inhibitory concentration (IC50) is 0.1 to 19 nM.

As to `Cc1nsc(-c2ccc(C)c(NCC(=O)N3CCc4c3cccc4C(C)(C)OC(=O)C(O)CO)c2)n1` (centres unmarked) [Example 67, 2-(1-((2-methyl-5-(3-methyl-1,2,4-thiadiazol-5-yl)phenyl)glycyl)indolin-4-yl)propan-2-yl 2,3-dihydroxy-propanoate], the IC50 was in the range of 20 to 39 nM.

With `CCc1noc(-c2ccc(OC)c(NCC(=O)N3CCc4ccc(C(F)(F)F)cc43)c2)n1` [Example 7, 2-(5-(3-ethyl-1,2,4-oxadiazol-5-yl)-2-methoxyphenylamino)-1-(6-(trifluoromethyl)indolin-1-yl)ethanone], the IC50 is over 100 nM.

In the case of `CCc1noc(-c2ccc(OC)c(NCC(=O)N3CCc4nc(OC)ccc43)c2)n1` [Example 11, 2-((5-(3-ethyl-1,2,4-oxadiazol-5-yl)-2-methoxyphenyl)amino)-1-(5-methoxy-2,3-dihydro-1H-pyrrolo[3,2-b]pyridin-1-yl)ethan-1-one], the IC50 lay within 20 to 39 nM.

Take `Cc1nsc(-c2ccc(C)c(NCC(=O)N3CCc4c3cccc4N(S(C)(=O)=O)S(C)(=O)=O)c2)n1` [Example 78, N-(1-((2-methyl-5-(3-methyl-1,2,4-thiadiazol-5-yl)phenyl)glycyl)indolin-4-yl)-N-(methylsulfonyl) methanesulfonamide]: the IC50 is 0.1 to 19 nM.

Compound `COc1ccc(-c2ccc(C)cn2)cc1NCC(=O)N1CCc2cc(F)c(F)cc21` [Example 118, 1-(5,6-difluoroindolin-1-yl)-2-((2-methoxy-5-(5-methylpyridin-2-yl)phenyl)amino)ethan-1-one] gave an IC50 of 40 to 69 nM.

Consider `Cc1noc(-c2ccc(F)c(NCC(=O)N3CCc4c(N)cccc43)c2)n1` [Example 75, 1-(4-aminoindolin-1-yl)-2-((2-fluoro-5-(3-methyl-1,2,4-oxadiazol-5-yl)phenyl)-amino)ethan-1-one], for which the IC50 lay within 70 to 99 nM.

Compound `CCc1noc(-c2cc(NCC(=O)c3c[nH]c4cc(OC)c(Br)cc34)c(OC)cc2Br)n1` [Example 108, 2-(4-bromo-5-(3-ethyl-1,2,4-oxadiazol-5-yl)-2-methoxyphenylamino)-1-(5-bromo-6-methoxy-1H-indol-3-yl) ethanone] had an IC50 of 70 to 99 nM.

`CCc1noc(-c2ccc(OC)c(NCC(=O)c3c[nH]c4cc(OC)c(F)cc34)c2)n1` [Example 97, 2-((5-(3-ethyl-1,2,4-oxadiazol-5-yl)-2-methoxyphenyl)amino)-1-(5-fluoro-6-methoxy-1H-indol-3-yl) ethan-1-one] displayed a half-inhibitory concentration (IC50) of 0.1 to 19 nM.

On to `Cc1ccc(-c2ccc(C)c(NCC(=O)N3CCc4c(OCC(C)(C)O)cccc43)c2)nc1` [Example 117, 1-(4-(2-hydroxy-2-methylpropoxy)indolin-1-yl)-2-((2-methyl-5-(5-methylpyridin-2-yl)phenyl)amino)ethan-1-one], for which the IC50 lay in the range of 40 to 69 nM.

In turn, `COc1ccc(-c2ccc(C)cn2)cc1NCC(=O)N1CCc2c(OC)cccc21` [Example 120, 2-((2-methoxy-5-(5-methyl-pyridin-2-yl)phenyl)amino)-1-(4-methoxyindolin-1-yl) ethan-1-one] had an IC50 of 40 to 69 nM.

`Cc1nsc(-c2ccc(C)c(NCC(=O)N3CCc4c(NCC(C)(C)O)cccc43)c2)n1` [Example 44, 1-(4-((2-hydroxy-2-methylpropyl)amino)indolin-1-yl)-2-((2-methyl-5-(3-methyl-1,2,4-thiadiazol-5-yl)phenyl)-amino)ethan-1-one] displayed a half-inhibitory concentration (IC50) of 20 to 39 nM.

Compound `Cc1ccc(-c2ccc(C)c(NCC(=O)N3CCc4c(CO)cccc43)c2)nc1` [Example 116, 1-(4-(hydroxymethyl)indolin-1-yl)-2-((2-methyl-5-(5-methylpyridin-2-yl)phenyl)amino)ethan-1-one] yielded a concentration for half-maximal inhibition (IC50) of 70 to 99 nM.

`CC(=O)c1cccc2c1CCN2C(=O)CNc1cc(-c2nc(C)ns2)ccc1C` [Example 37, 1-(4-acetylindolin-1-yl)-2-((2-methyl-5-(3-methyl-1,2,4-thiadiazol-5-yl)phenyl)amino)ethan-1-one] showed an IC50 of 20 to 39 nM.

With `COc1ccc(-c2nc(C)ns2)cc1NCC(=O)N1CCc2c(OC)cccc21` [Example 4, 2-((2-methoxy-5-(3-methyl-1,2,4-thiadiazol-5-yl)phenyl)-amino)-1-(4-methoxyindolin-1-yl)ethan-1-one], the IC50 lay in the range of 20 to 39 nM.

In the case of `Cc1ccc(-c2ccc(C(C)C)cn2)cc1NCC(=O)N1CCc2c(OCCOCCO)cccc21` [Example 113, 1-(4-(2-(2-hydroxyethoxy)ethoxy)indolin-1-yl)-2-((5-(5-isopropylpyridin-2-yl)-2-methylphenyl)amino) ethan-1-one], the IC50 is 40 to 69 nM.
